Test results as given in PubChem BioAssay AID328 (DTP/NCI, 2004).
Values joined by “and” are separate entries in the source; they are usually repeats but may differ in a detail not shown here. Equal values may be shown once. Inconclusive results and toxic doses are left out.

Test system: BDF1 mice, P388 leukemia ip, median survival T/C
Experiment: NCI In Vivo Anticancer Drug Screen. Data for tumor model P388 Leukemia (intraperitoneal) in B6D2F1 (BDF1) mice
Conditions: endpoint: median survival time, higher = longer survival
Summary of the method: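 In tumour-bearing mice, survival after compound treatment is set against the vehicle group and given as a quotient.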

[1] = dose: 50.0 mg/kg/injection, schedule: Q01DX009 (ip), vehicle: saline with Tween-80
[2] = dose: 50.0 mg/kg/injection, schedule: Q04DX003 (ip), vehicle: saline with Tween-80
[3] = dose: 100.0 mg/kg/injection, schedule: Q01DX009 (ip), vehicle: saline with Tween-80
[4] = dose: 200.0 mg/kg/injection, schedule: Q01DX009 (ip), vehicle: saline with Tween-80
[5] = dose: 12.5 mg/kg/injection, schedule: Q01DX009 (ip), vehicle: saline
[6] = dose: 25.0 mg/kg/injection, schedule: Q01DX009 (ip), vehicle: saline
[7] = dose: 100.0 mg/kg/injection, schedule: Q04DX003 (ip), vehicle: saline
[8] = dose: 200.0 mg/kg/injection, schedule: Q04DX003 (ip), vehicle: saline
[9] = dose: 400.0 mg/kg/injection, schedule: Q04DX003 (ip), vehicle: saline
[10] = dose: 25.0 mg/kg/injection, schedule: Q04DX003 (ip), vehicle: saline with Tween-80

In the case of `O=C(CN1CC1)NCCCCCCCCNC(=O)CN1CC1`, the T/C (dose: 12.5 mg/kg/injection, schedule: Q01DX009 (ip), vehicle: saline with Tween-80) is reported as 200 % of control, the T/C (dose: 25.0 mg/kg/injection, schedule: Q01DX009 (ip), vehicle: saline with Tween-80) is reported as 259 % of control and the T/C (dose: 33.0 mg/kg/injection, schedule: Q04DX003 (ip), vehicle: saline with Tween-80) is reported as 190 % of control. The T/C [1] was 86 % of control, the T/C [2] was 209 % of control and the T/C (dose: 75.0 mg/kg/injection, schedule: Q04DX003 (ip), vehicle: saline with Tween-80) was 245 % of control.
`CC(=O)Nc1ccc(SSSc2ccc(NC(C)=O)cc2)cc1` was tested, and the T/C (dose: 12.5 mg/kg/injection, schedule: Q01DX009 (ip), vehicle: water) was 100 % of control, the T/C (dose: 25.0 mg/kg/injection, schedule: Q01DX009 (ip), vehicle: water) was 96 % of control and the T/C (dose: 50.0 mg/kg/injection, schedule: Q01DX009 (ip), vehicle: water) was 101 % of control. For the same molecule, the T/C (dose: 100.0 mg/kg/injection, schedule: Q01DX009 (ip), vehicle: water) was 105 % of control and the T/C (dose: 200.0 mg/kg/injection, schedule: Q01DX009 (ip), vehicle: water) was 111 % of control and 118 % of control.
For `Cc1c(/C=C(\C#N)c2ccc([N+](=O)[O-])cc2)c(=O)n(-c2ccccc2)n1C`, the T/C (dose: 100.0 mg/kg/injection, schedule: Q04DX003 (ip), vehicle: gum acacia) was 103 % of control, the T/C (dose: 200.0 mg/kg/injection, schedule: Q04DX003 (ip), vehicle: gum acacia) was 100 % of control and the T/C (dose: 400.0 mg/kg/injection, schedule: Q04DX003 (ip), vehicle: gum acacia) was 100 % of control.
In the case of `O=C(/C=C/c1ccc(OCc2ccccc2)cc1)c1cccc(Cl)c1`, the T/C [1] is reported as 105 % of control, the T/C [3] is reported as 96 % of control and the T/C [4] is reported as 89 % of control.
In the case of `C[CH2][Sn]([CH2]C)([O]S(=O)(=O)CC12CCC(CC1=O)C2(C)C)[O]S(=O)(=O)CC12CCC(CC1=O)C2(C)C`, the T/C [5] is reported as 173 % of control and the T/C [6] is reported as 195 % of control.
`O=C(O)CP(=O)(O)O` was tested, and the T/C (dose: 250.0 mg/kg/injection, schedule: Q03HX024 (ip), vehicle: saline) was 120 % of control.
In the case of `CC(=O)Nc1ccc(C(=O)NN)cc1`, the T/C [3] is reported as 108 % of control, the T/C [4] is reported as 105 % of control and the T/C (dose: 400.0 mg/kg/injection, schedule: Q01DX009 (ip), vehicle: saline with Tween-80) is reported as 97 % of control.
`CCOC(=O)c1cc(C=O)c[nH]1` was tested, and the T/C [1] was 93 % of control, the T/C [3] was 99 % of control and the T/C [4] was 101 % of control.
`COc1ccc2c3c1OC1C(Oc4nnnn4-c4ccccc4)C=CC4C(C2)N(C)CCC341` (configuration not stated) was tested, and the T/C (dose: 12.5 mg/kg/injection, schedule: Q04DX003 (ip), vehicle: saline) was 105 % of control, the T/C (dose: 25.0 mg/kg/injection, schedule: Q04DX003 (ip), vehicle: saline) was 113 % of control and the T/C (dose: 50.0 mg/kg/injection, schedule: Q04DX003 (ip), vehicle: saline) was 99 % of control. For the same molecule, the T/C [7] was 103 % of control, the T/C [8] was 103 % of control and the T/C [9] was 99 % of control.
For `O=c1oc(-c2ccccc2)nc2c(Cl)ccc(Cl)c12`, the T/C [7] was 109 % of control, the T/C [8] was 104 % of control and the T/C [9] was 104 % of control.
`CC1OC(O[C@@H]2C=C3CC[C@@H]4[C@H](CC[C@]5(C)[C@@H](c6ccc(=O)oc6)CC[C@]45O)[C@@]3(C)CC2)C(O)C(O)C1O` (some centres not stated) was tested, and the T/C (dose: 2.5 mg/kg/injection, schedule: Q01DX010 (ip), vehicle: carboxymethylcellulose (CMC)) was 105 % of control and the T/C (dose: 5.0 mg/kg/injection, schedule: Q01DX010 (ip), vehicle: carboxymethylcellulose (CMC)) was 105 % of control.
In the case of `Cc1cc(N(CCCl)CCCl)ccc1N=Nc1ccccc1C(=O)[O-].Cc1cc(N(CCCl)CCCl)ccc1N=Nc1ccccc1C(=O)[O-].[Cu+2]`, the T/C (dose: 16.5 mg/kg/injection, schedule: Q04DX003 (ip), vehicle: saline with Tween-80) is reported as 240 % of control and 105 % of control, the T/C [10] is reported as 263 % of control and 165 % of control and the T/C (dose: 37.5 mg/kg/injection, schedule: Q04DX003 (ip), vehicle: saline with Tween-80) is reported as 227 % of control.
`O=C(OCC(OC(=O)c1ccccc1)C(OC(=O)c1ccccc1)C(OC(=O)c1ccccc1)C(COC(=O)c1ccccc1)OC(=O)c1ccccc1)c1ccccc1` (configuration not stated) was tested, and the T/C (dose: 6.25 mg/kg/injection, schedule: Q04DX003 (ip), vehicle: saline with Tween-80) was 97 % of control, the T/C (dose: 12.5 mg/kg/injection, schedule: Q04DX003 (ip), vehicle: saline with Tween-80) was 92 % of control and the T/C [10] was 97 % of control. The T/C [2] was 87 % of control.
With `CCCCCCCCCCCCNC(=O)c1ccc[n+](C)c1` the T/C (dose: 6.25 mg/kg/injection, schedule: Q01DX009 (ip), vehicle: saline) was 118 % of control, the T/C [5] was 109 % of control and the T/C [6] was 113 % of control.
